From ChEMBL document CHEMBL3882724 (2013)

Assays:
[1] = biological target: T1, Steroid 17-alpha-hydroxylase/17,20 lyase (Homo sapiens, UniProt P05093); assay: Inhibition of CYP17 in human testicular microsomes using 17alpha-hydroxypregnenolone as substrate assessed as decrease in DHEA levels at 10 nM after 90 mins by ELISA relative to control; set-up: species or system Testis; conditions: 1.5 h
T1 sequence (P05093 whole entry): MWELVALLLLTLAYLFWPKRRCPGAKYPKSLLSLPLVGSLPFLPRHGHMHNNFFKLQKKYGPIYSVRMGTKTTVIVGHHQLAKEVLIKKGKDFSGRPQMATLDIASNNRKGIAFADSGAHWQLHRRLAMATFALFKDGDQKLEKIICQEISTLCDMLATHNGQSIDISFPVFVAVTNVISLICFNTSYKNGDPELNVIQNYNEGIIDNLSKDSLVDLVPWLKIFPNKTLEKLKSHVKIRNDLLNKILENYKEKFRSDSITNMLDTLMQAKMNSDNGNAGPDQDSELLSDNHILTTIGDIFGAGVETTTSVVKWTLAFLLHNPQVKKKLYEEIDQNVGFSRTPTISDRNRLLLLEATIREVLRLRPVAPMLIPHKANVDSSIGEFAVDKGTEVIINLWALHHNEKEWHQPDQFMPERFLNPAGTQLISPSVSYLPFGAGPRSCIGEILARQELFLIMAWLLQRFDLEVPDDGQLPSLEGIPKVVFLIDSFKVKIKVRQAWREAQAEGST

[2] = Half life in human liver microsomes at 1 uM by LC-MS/MS analysis
[3] = biological target: T2, CYP11B (Rattus norvegicus, UniProt P15393+P30099); assay: Inhibition of Sprague-Dawley rat adrenal mitochondrial CYP11B assessed as decrease in conversion of 11-deoxycortisol to cortisol at 100 nM incubated for 60 mins by ELISA relative to control; format: protein assay; conditions: adrenal mitochondria, probe 11-deoxycortisol
T2 sequence (P30099 whole entry): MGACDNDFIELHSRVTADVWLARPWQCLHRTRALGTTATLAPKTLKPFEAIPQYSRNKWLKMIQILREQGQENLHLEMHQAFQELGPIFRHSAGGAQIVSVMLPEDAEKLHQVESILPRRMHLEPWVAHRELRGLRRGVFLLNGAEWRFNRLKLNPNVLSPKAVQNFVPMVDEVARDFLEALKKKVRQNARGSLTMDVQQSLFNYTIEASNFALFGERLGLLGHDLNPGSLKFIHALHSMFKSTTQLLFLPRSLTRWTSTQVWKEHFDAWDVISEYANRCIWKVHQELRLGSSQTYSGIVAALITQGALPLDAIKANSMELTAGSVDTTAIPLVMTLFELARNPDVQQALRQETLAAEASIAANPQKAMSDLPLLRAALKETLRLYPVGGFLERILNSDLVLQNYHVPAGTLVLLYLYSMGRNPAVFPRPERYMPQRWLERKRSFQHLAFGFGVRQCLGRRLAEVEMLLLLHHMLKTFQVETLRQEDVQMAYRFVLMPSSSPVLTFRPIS
T2 sequence (P15393 whole entry): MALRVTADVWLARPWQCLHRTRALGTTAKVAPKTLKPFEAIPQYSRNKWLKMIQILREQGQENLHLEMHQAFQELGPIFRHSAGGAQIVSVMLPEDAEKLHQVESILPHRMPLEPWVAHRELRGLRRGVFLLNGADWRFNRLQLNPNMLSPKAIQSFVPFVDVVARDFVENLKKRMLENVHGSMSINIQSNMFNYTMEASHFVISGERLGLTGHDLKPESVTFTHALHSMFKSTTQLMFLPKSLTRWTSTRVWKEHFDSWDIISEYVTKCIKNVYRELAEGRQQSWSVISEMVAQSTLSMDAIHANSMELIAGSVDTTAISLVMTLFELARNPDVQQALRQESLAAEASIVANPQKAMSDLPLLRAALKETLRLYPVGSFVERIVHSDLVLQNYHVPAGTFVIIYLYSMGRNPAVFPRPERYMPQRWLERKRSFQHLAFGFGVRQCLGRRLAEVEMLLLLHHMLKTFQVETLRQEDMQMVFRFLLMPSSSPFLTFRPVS

[4] = biological target: T3, CYP21 (steroid 21-hydroxylase) (Homo sapiens, UniProt P08686); assay: Inhibition of human CYP21 transfected in HEK293 cells assessed as decrease in conversion of progesterone to 11-deoxycorticosterone at 100 nM preincubated for 5 hrs followed by progesterone addition measured after 20 hrs by ELISA relative to control; format: cell-based; conditions: HEK293 cells transfected with human CYP21, probe progesterone
T3 sequence (P08686 whole entry): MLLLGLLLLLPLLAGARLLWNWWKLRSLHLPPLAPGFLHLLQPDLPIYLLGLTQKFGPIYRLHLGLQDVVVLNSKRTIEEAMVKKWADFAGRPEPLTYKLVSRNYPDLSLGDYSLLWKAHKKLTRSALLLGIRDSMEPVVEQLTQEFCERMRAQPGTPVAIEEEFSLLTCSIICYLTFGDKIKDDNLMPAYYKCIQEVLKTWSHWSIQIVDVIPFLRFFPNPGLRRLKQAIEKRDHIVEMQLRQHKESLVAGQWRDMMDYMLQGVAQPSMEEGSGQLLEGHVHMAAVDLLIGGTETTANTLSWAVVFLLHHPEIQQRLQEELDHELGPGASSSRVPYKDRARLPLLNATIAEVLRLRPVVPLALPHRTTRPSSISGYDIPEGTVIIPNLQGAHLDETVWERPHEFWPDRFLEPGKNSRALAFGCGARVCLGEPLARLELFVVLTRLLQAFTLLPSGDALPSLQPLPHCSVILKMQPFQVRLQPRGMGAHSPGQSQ

[5] = biological target: T1, Steroid 17-alpha-hydroxylase/17,20 lyase; assay: Inhibition of CYP17 in human testicular microsomes using 17alpha-hydroxypregnenolone as substrate assessed as decrease in DHEA levels after 90 mins by ELISA; set-up: species or system Testis
[6] = biological target: T3, CYP21 (steroid 21-hydroxylase); assay: Inhibition of human CYP21 transfected in HEK293 cells assessed as decrease in conversion of progesterone to 11-deoxycorticosterone preincubated for 5 hrs followed by progesterone addition measured after 20 hrs by ELISA; format: cell-based; set-up: concentration or dose not given beside the values; conditions: HEK293 cells transfected with human CYP21, probe progesterone
[7] = biological target: T1, Steroid 17-alpha-hydroxylase/17,20 lyase; assay: Inhibition of CYP17 in human testicular microsomes using 17alpha-hydroxypregnenolone as substrate assessed as decrease in DHEA levels at 1 nM after 90 mins by ELISA relative to control; set-up: species or system Testis
[8] = Half life in rat liver microsomes at 1 uM by LC-MS/MS analysis
[9] = biological target: T1, Steroid 17-alpha-hydroxylase/17,20 lyase; assay: Inhibition of CYP17 in human H295R cells assessed as decrease in testosterone levels after 24 hrs by ELISA; format: cell-based
[10] = biological target: T1, Steroid 17-alpha-hydroxylase/17,20 lyase; assay: Inhibition of human C17,20-lyase in human testis microsomes at 10 nM using 17alpha-hydroxypregnenolone/[21-3H]-17alpha-hydroxypregnenolone as substrate after 30 mins by scintillation counting method relative to control; conditions: 0.5 h

| inhibition at 0.01 µM [1] | half-life at 1 µM [2] | inhibition at 20 h, 0.1 µM [4] | IC50 [5] | half-life at 1 µM [8] | IC50 [9] | inhibition at 0.01 µM [10] | Compound | inhibition at 1 h, 0.1 µM [3] | inhibition at 20 h [6] | IC50 [7] |
| --- | --- | --- | --- | --- | --- | --- | --- | --- | --- | --- |
| ≥ 80% | 1 to 50 min | ≥ 30% | ≤ 11 nM |  |  |  | CN1CC[C@@]2(C)C(=CC1=O)CC[C@H]1C3=CC=C(c4cccnc4)[C@@]3(C)CC[C@@H]12 | < 32% |  |  |
| ≥ 80% | 1 to 50 min | ≥ 30% | ≤ 11 nM | 1 to 10 min |  |  | C[C@]12CC[C@H]3[C@@H](CCC4=CC(=O)CC[C@@]43C)C1=CC=C2c1cccnc1 |  |  |  |
|  |  |  |  |  |  | ≥ 38% | C[C@]12CC[C@H]3[C@@H](CCN4C(=O)C=CCC[C@]34C)[C@@H]1CC=C2c1cccnc1 |  |  |  |
| ≥ 80% | 10 to 60 min | < 30% | ≤ 11 nM | 10 to 60 min |  |  | CCc1cncc(C2=CC[C@H]3[C@@H]4CCC5=CC(=O)NCC[C@]5(C)[C@H]4CC[C@]23C)c1 |  |  |  |
| ≥ 80% | 1 to 50 min | < 30% | ≤ 11 nM | 1 to 10 min |  |  | C[C@]12CC[C@H]3[C@@H](CC[C@H]4CC(=O)NCC[C@@]43C)C1=CC=C2c1cccnc1 |  |  |  |
| ≥ 80% | 1 to 10 min | < 30% | ≤ 11 nM | 1 to 10 min |  |  | C[C@]12CCNC(=O)C=C1CC[C@@H]1[C@@H]2CC[C@]2(C)C(c3cccnc3)=CC[C@@H]12 |  |  |  |
| 50 to 80% | 10 to 60 min | ≥ 30% | ≤ 11 nM | 10 to 60 min |  |  | Cc1cncc(C2=CC[C@H]3[C@@H]4CCC5=CC(=O)NCC[C@]5(C)[C@H]4CC[C@]23C)c1 |  |  |  |
| ≥ 80% | ≥ 50 min | < 30% | ≤ 11 nM | 10 to 60 min |  |  | C[C@]12CC[C@H]3[C@@H](CCC4=CC(=O)NCC[C@@]43C)C1=CC=C2n1ccnc1 |  |  |  |
|  | 1 to 10 min |  |  | 1 to 10 min |  | ≥ 38% | C[C@]12CC[C@H]3[C@@H](CCN4C(=O)CC=CC[C@]34C)[C@@H]1CC=C2c1cccnc1 |  |  |  |
|  |  |  |  |  |  | 3 to 38% | CCOc1cncc(C2=CC[C@H]3[C@@H]4CC[C@H]5COC(=O)CC[C@]5(C)[C@H]4CC[C@]23C)c1 |  |  |  |
| ≥ 80% | ≥ 50 min | ≥ 30% |  | 10 to 60 min | ≤ 15 nM |  | CN1CC[C@@]2(C)C(=CC1=O)CC[C@H]1C3=CC=C(n4ccnc4)[C@@]3(C)CC[C@@H]12 |  |  |  |
|  |  |  |  |  |  | ≥ 38% | COc1cncc(C2=CC[C@H]3[C@@H]4CC[C@H]5COC(=O)CC[C@]5(C)[C@H]4CC[C@]23C)c1 |  |  |  |
|  | 1 to 50 min |  | ≤ 11 nM | 10 to 60 min |  | ≥ 38% | C[C@]12CCOC(=O)C[C@@H]1CC[C@@H]1[C@@H]2CC[C@]2(C)C(c3cccnc3)=CC[C@@H]12 |  |  |  |
| 50 to 80% | 10 to 60 min | ≥ 30% | ≤ 11 nM | 10 to 60 min |  |  | CN1CC[C@@]2(C)C(=CC1=O)CCC1[C@@H]2CC[C@]2(C)C(c3cccnc3)=CC[C@@H]12 (single isomer, unassigned) |  |  |  |

More lines, now with the values behind:

| Compound | inhibition at 0.01 µM [1] | half-life at 1 µM [2] | inhibition at 20 h, 0.1 µM [4] | IC50 [5] | half-life at 1 µM [8] | IC50 [9] | inhibition at 0.01 µM [10] | inhibition at 1 h, 0.1 µM [3] | inhibition at 20 h [6] | IC50 [7] |
| --- | --- | --- | --- | --- | --- | --- | --- | --- | --- | --- |
| CO/N=C1/C=C2CC[C@H]3C4=CC=C(c5cccnc5)[C@@]4(C)CC[C@@H]3[C@@]2(C)CC1 |  | ≥ 50 min | ≥ 30% | ≤ 11 nM |  |  |  |  | 10 to 50% | > 100 nM |
| C[C@]12CC[C@H]3[C@@H](CC[C@H]4CC(=O)CC[C@@]43C)C1=CC=C2c1cccnc1 | ≥ 80% | 1 to 50 min | ≥ 30% | ≤ 11 nM |  |  |  | ≥ 50% |  |  |
| CCNC(=O)N[C@@H]1CC[C@@]2(C)C(=CC[C@@H]3[C@@H]2CC[C@]2(C)C(n4ccnc4)=CC[C@@H]32)C1 |  | 1 to 50 min | < 30% |  |  |  |  | ≥ 50% | ≥ 50% |  |
| C[C@]12CC(O)C[C@@H]1CC[C@@H]1[C@@H]2CC[C@]2(C)C(n3ccnc3)=CC[C@@H]12 (stereo partly specified) | ≥ 80% | 10 to 60 min | ≥ 30% | ≤ 11 nM | 10 to 60 min | ≤ 15 nM |  | ≥ 50% |  |  |
| C[C@]12CC[C@H]3[C@@H](CC[C@H]4CC(=O)CC[C@@]43C)C1=CC=C2n1ccnc1 | ≥ 80% | 1 to 50 min | < 30% | ≤ 11 nM |  |  |  | < 32% |  |  |
| C[C@]12CC[C@H]3[C@@H](CC=C4C[C@@H](O)CC[C@@]43C)C1=CC=C2c1cccnc1 | 50 to 80% | 1 to 50 min | < 30% | ≤ 11 nM | 10 to 60 min | ≤ 15 nM |  | < 32% |  |  |
| C[C@]12CC[C@H]3[C@@H](CCC4=CC(=O)CC[C@@]43C)C1=CC=C2n1ccnc1 | ≥ 80% | ≥ 50 min | < 30% | ≤ 11 nM | 10 to 60 min |  |  | ≥ 50% |  |  |
| C[C@]12CCNC(=O)C=C1CC[C@@H]1[C@@H]2CC[C@]2(C)C(n3ccnc3)=CC[C@@H]12 | ≥ 80% | ≥ 50 min | < 30% | ≤ 11 nM | 10 to 60 min | ≤ 15 nM |  |  |  |  |
| C[C@]12CCNC(=O)C=C1CC[C@@H]1[C@@H]2CC[C@]2(C)C(n3cncn3)=CC[C@@H]12 | ≥ 80% | 1 to 10 min | ≥ 30% | ≤ 11 nM | 1 to 10 min |  |  | < 32% |  |  |
